Legend:
[1] = Particle size of milled product (SEM analysis / particle sizing); format: physicochemical
Description: Drug substance prepared according to the present invention maybe characterised by a series of physical analytical techniques well known to those skilled in the art for analysing physical form, for instance XPRD, polarised light microscopy (PLM), thermal analysis, FT-IR and laser diffraction particle sizing. 500 mg of drug or drug:polymer blend (PVP K30, PVP/VA 64 (BASF) and PVP/VA 37 (BASF)) (1:2 w/w) was ball milled in a mixer mill (MM2 Mixer mill, Glen Creston Ltd). The sample was milled at 17.5 1/sec in a 25 ml chamber for 120 minutes at 2% w/v with 2×12 mm diameter and 6×7 mm diameter stainless steel ball bearings. 500 mg of drug or drug:polymer blend (PVP K30) (1:2 w/w) was placed in a 25 ml milling chamber (2% w/v). Grinding media of 2×5 mm, 2×7 mm, 2×9 mm and 2×12 mm ball bearings were added. 10 g of 134a (Du Pont) was then added into the milling chamber via a valve. The sample was then milled for 2×20 minute periods at a frequency of 25 1/sec using a Retsch MM200 Mixer mill.

[2] = Physical form of milled, co-milled or spray dried product by XRPD; format: physicochemical
Description: Drug substance prepared according to the present invention maybe characterised by a series of physical analytical techniques well known to those skilled in the art for analysing physical form, for instance XPRD, polarised light microscopy (PLM), thermal analysis, FT-IR and laser diffraction particle sizing.
500 mg of drug or drug:polymer blend (PVP K30, PVP/VA 64 (BASF) and PVP/VA 37 (BASF)) (1:2 w/w) was ball milled in a mixer mill (MM2 Mixer mill, Glen Creston Ltd). The sample was milled at 17.5 1/sec in a 25 ml chamber for 120 minutes at 2% w/v with 2×12 mm diameter and 6×7 mm diameter stainless steel ball bearings.
500 mg of drug or drug:polymer blend (PVP K30) (1:2 w/w) was placed in a 25 ml milling chamber (2% w/v). Grinding media of 2×5 mm, 2×7 mm, 2×9 mm and 2×12 mm ball bearings were added. 10 g of 134a (Du Pont) was then added into the milling chamber via a valve. The sample was then milled for 2×20 minute periods at a frequency of 25 1/sec using a Retsch MM200 Mixer mill.
XPRD patterns of resultant products are shown as FIG. 1.1 to 1.4.
500 mg of drug and 1 g of polymer (1:2 w/w) was placed in a 25 ml measuring chamber. Grinding media of 2 mm Yttrium-Zirconium beads (equivalent volume 5 ml) were added. 12 ml of propellant 134a was then added into the milling chamber via a valve. The sample was then milled for 30 minutes at a frequency of 25 1/sec using a Retsch MM200 Mixer mill.
Drug (2 g) and polymer (3 g) were dissolved in approximately 200 ml of dimethyl formamide and spray dried at approximately 2 ml/min using a lab scale spray drier (Buchi B191, outlet temperature about 95° C.). The spray dried powders were then further dried at 65° C. under vacuum for 48 hrs. The dispersions were amorphous by XRPD.
Thus, the co-milling process has not compromised the physical form of compound A.

[3] = parameters: key: Those in class II have low solubility and high permeability; those in class IV have low solubility and low permeability; conditions: classified according to solubility and permeability (Amidon et al); cited from earlier work
[4] = Dissolution testing of ball milled and 134a ball milled products (USP II apparatus, sink conditions); format: physicochemical; conditions: neat drug ball milled in 134a, 37.5° C., 50 RPM
Description: The dissolution profiles of study compounds prepared by ball milling and 134a ball milling were measured according to the following method:
Dissolution testing was carried out under sink conditions using a VanKel USP II dissolution apparatus (fluid pump Model 17-2300, water bath VK750D, water bath stirrer VK7010). Dissolution testing was carried out at 37.5° C.+/−0.5° C. (Digitron Type K thermocouple thermometer). Vessels were stirred at 50 RPM. Samples underwent online UV analysis (Hewlett Packard 8453) at time points 0, 2, 5, 10, 15, 20, 30, 45 and 60 minutes. Samples were filtered with a 10 μm filters (Anachem). The pH 6.8 0.1M phosphate buffer^1 was degassed prior to commencement of the dissolution run (Copley Dissofill, model DSF2). Standard curves were prepared by dissolving drug in acetonitrile:water (1:1) for carbamazepine and glibenclamide or acetonitrile:pH 6.8 buffer (1:1) for dipyridamole and indomethacin. Drug concentration, UV cell path length, dissolution media and wavelength of detection were all compound specific. All analysis was carried out in triplicate. ^1 pH 6.8 buffer: 20 l prepared by addition of 10 l of Na2HPO4.2H2O 17.8 g/l to 10 l of NaH2PO4.H2O 13.8 g/l. pH was confirmed using a pH meter.

[5] = ball milling with 134a, compared to conventionally milled product
[6] = ball milling with propellant 134a, 2×20 minute
[7] = conventional ball milling, 120 minutes, no propellant

particle size [1, 5]	particle size ([1]; conventional ball milling)	physical form of product [2, 7]	dissolution rate [4]	Compound	physical form of product [2, 6]	Biopharmaceutics Classification system class [3]
		predominantly amorphous product	improved in dissolution rate	OCCN(CCO)c1nc(N2CCCCC2)c2nc(N(CCO)CCO)nc(N3CCCCC3)c2n1 [dipyridamole]	dipyridamole form II	II
significant decrease in particle size		amorphous product		COc1ccc(Cl)cc1C(=O)NCCc1ccc(S(=O)(=O)NC(=O)NC2CCCCC2)cc1 [glibenclamide]	remained in the same crystalline form as the starting material	II
significant decrease in particle size		predominantly amorphous product		COc1ccc2c(c1)c(CC(=O)O)c(C)n2C(=O)c1ccc(Cl)cc1 [indomethacin]	γ form	II

Compound	particle size [1, 5]	particle size ([1]; conventional ball milling)	physical form of product [2, 7]	dissolution rate [4]	physical form of product [2, 6]	Biopharmaceutics Classification system class [3]
NC(=O)N1c2ccccc2C=Cc2ccccc21 [carbamazepine, Carbamazepine]	significant decrease in particle size	no significant decrease in particle size	conversion to a crystalline form, form III		complete conversion to a crystalline form, form III	II
